In series [1] the test system is aneurysmal aorta (CaCl2-induced AAA of the infrarenal aorta). Put plainly: Targeting of PA nanomaterials to aneurysmal tissue in CaCl2-induced AAA rats (LSFM / fluorescence microscopy after intravenous injection). The series is classed as in vivo, Sprague Dawley rats. The following applies: for targeting to the rat aorta (LSFM images): 2 hours post PA injection (FIG. 8A); for Targeting Capability: Table 1, aneurysm targeting. From the text:
We also validated the CaCl2 model, by inducing aneurysms in 10 male and 7 female Sprague Dawley rats. We measured aortic diameter before AAA induction and then at days 14, 21, and 28 after induction using ultrasound. At day 35, we performed an endpoint surgery and measured the diameter of the aorta, perfusion-fixed the rats, and collected tissue. Tissue was cryo-sectioned and assayed for elastin (Verhoeff-Van Gieson (VVG)), calcium (Von Kossa), and MMP-2 (IF) staining. […] There was no significant difference between male and female rats in aortic dilation (data not shown). Further, we found both elastin fragmentation, and robust MMP-2 protein staining in the aortas exposed to CaCl2, with negligible amounts of fragmentation and MMP-2 in the suprarenal aortas from the same animals (FIG. 2 C+F). Fragmentation of elastin and MMP-2 corresponded to regions of the aorta that were calcified (FIG. 2E).
To evaluate the targeting specificity of the targeted PA nanomaterials, we induced AAA in the infrarenal aorta of Sprague Dawley rats by exposure to CaCl2. After 35 days, a period consistent with aneurysm formation, the targeted PA nanomaterials was injected intravenously. We assessed targeting specificity and duration to aneurysmal sites as well as to all vital organs. We also determined optimal concentration, dose, and co-assembly ratios. Controls included rats injected with saline alone, non-targeted PA nanomaterials, and PA nanomaterials bearing a scrambled targeting sequence.
Experimental Design. Dosage and targeting specificity. To evaluate specific localization of targeted PA nanomaterials, AAA is induced in the infrarenal aorta of male and female Sprague Dawley rats by exposure to CaCl2) (FIG. 4 and FIG. 5A). The features of human AAA can be recapitulated in rodent models. Here, we developed and validated a surgical model of AAA, where CaCl2 is applied to the periadventitial surface of the aorta.^4, 18 While no single model perfectly replicates human AAA, similarities between CaCl2-induced AAA and human aneurysms makes this a useful model. […]
Aortic dilation is measured using ultrasound imaging. […]
Targeting specificity of both MMP-2-targeting and elastin-targeting PAs to the aneurysmal aorta, non-aneurysmal suprarenal aorta, and all vital organs is assessed using in vivo imaging system (IVIS), light-sheet fluorescence microscopy (LSFM), and immunofluorescence (IF) microscopy. […] Targeting specificity was determined by measuring pixel count above an assigned threshold. Further, MMP-2 was quantified using IF microscopy and correlated to the amount of MMP-2-targeting PA. […] With this experiment, we confirmed that targeted PA nanomaterials localized to the site of interest and optimal dose for duration studies was determined. […]

A short description of series [2]: Organ distribution of PA (kidney, liver, lung, spleen, aorta) by LSFM. The series is classed as in vivo, Sprague Dawley rats. The following applies: 2 hours post injection (FIG. 11). As for the experimental part:
(A) Organ distribution of MMP-2 targeting PA 1 in the kidney, liver, lung, spleen, and aorta of Sprague Dawley rats 2 hours post injection. White color represents autofluorescence and red to yellow represents TAMRA-labeled PA. (B) Plotted mean data of the ratio of PA to tissue in each organ.
Targeting specificity of both MMP-2-targeting and elastin-targeting PAs to the aneurysmal aorta, non-aneurysmal suprarenal aorta, and all vital organs is assessed using in vivo imaging system (IVIS), light-sheet fluorescence microscopy (LSFM), and immunofluorescence (IF) microscopy. […] Targeting specificity was determined by measuring pixel count above an assigned threshold. Further, MMP-2 was quantified using IF microscopy and correlated to the amount of MMP-2-targeting PA. When no adverse side effects occurred, the dosage was increased until we achieved saturation of targeting. With this experiment, we confirmed that targeted PA nanomaterials localized to the site of interest and optimal dose for duration studies was determined. Results are shown for 2 hours post PA injection of either 2.5 mg, 5 mg, or 10 mg of MMP-2-targeting PA 1. A higher PA volume to tissue volume ratio is seen in the 5 mg and 10 mg dose than the 2.5 mg dose. The 5 mg dose was selected for further investigation. […]

Where a SMILES comes first, the peptide text is derived from it. Where no end group is shown, it is not given here. The star is where a group is joined. Palmitoyl = CCCCCCCCCCCCCCCC(=O)*; Lauroyl = CCCCCCCCCCCC(=O)*; C16 = C16 lipid tail

With “PLSEWRASYNGGEEAAVVK(C12) (PLSEWRASYNGGEEAAVVK(Lauroyl)) [Fragmented Elastin_PLS, fragmented elastin-targeting peptide amphiphile on E2A2V2K(C12) diluent backbone]”, in series [1], the “targeting to the rat aorta (LSFM images)” value is given as “targeting to the rat aorta” and the “Targeting Capability” value is reported as “Does not target”.
For the compound `CCCCCCCCCCCCCCCC(=O)N[C@H](C(=O)N[C@H](C(=O)N[C@@H](C)C(=O)N[C@@H](C)C(=O)N[C@@H](CCC(=O)O)C(=O)N[C@@H](CCC(=O)O)C(=O)NCC(=O)NCC(=O)N[C@@H](CCCNC(=N)N)C(=O)NCC(=O)N[C@@H](C)C(=O)N[C@@H](C)C(=O)N1CCC[C@H]1C(=O)N1CCC[C@H]1C(=O)N[C@@H](CCCCN)C(=O)N[C@@H](CCC(N)=O)C(=O)N[C@@H](CCC(=O)O)C(=O)N[C@@H](Cc1ccccc1)C(=O)N[C@@H](CC(C)C)C(=O)N[C@@H](CC(=O)O)C(=O)N[C@H](C(=O)N[C@@H](CCC(=O)O)C(=O)O)[C@@H](C)CC)C(C)C)C(C)C` [MMP-2_RGA] (Palmitoyl-VVAAEEGGRGAAPPKQEFLDIE-OH; N-terminus and C-terminus assumed), the “organ distribution (kidney, liver, lung, spleen, aorta)” value in series [2] (listed as MMP-2-targeting PA 1) was “predominantly localized to the aorta”; in series [2] (listed as MMP-2 targeting PA), “predominantly localizes to the aorta”.
In the case of “(C16)VVAAEEGGLWMDWVTEKNIN (C16-VVAAEEGGLWMDWVTEKNIN) [MTI-MMP_LWM, MT1-MMP-targeting peptide amphiphile]”, in series [1], the “targeting to the rat aorta (LSFM images)” value is on record as “targeting to the rat aorta” and the “Targeting Capability” value is “Targets aneurysm”.
